In brackets after ≈: the same amount, converted by molar mass. Like-named read-outs stand apart in the source and are kept apart here.

In assay [1] the test system is Acinetobacter spp. isolates (n = 104). The settings on record: Acinetobacter spp. (n = 104); CLSI breakpoints. The procedure:
(§1) Comparator antibiotics were supplied by Micromyx, and stock solutions were prepared on the first day of testing using solvents recommended by CLSI (1). Stock solutions of all compounds were made at 40× the final testing concentration and stored at −80° C. prior to testing. Information regarding compound source, catalog and lot number, testing concentrations and drug diluent for the comparators and test agent are detailed below in Table 3.
(§2) The test organisms evaluated in this study consisted of clinical isolates from the Micromyx Repository and reference isolates from the American Type Culture Collection (ATCC; Manassas, VA). The clinical isolates were obtained from USA hospitals. Upon initial receipt at Micromyx, the organisms were sub-cultured onto an appropriate agar medium. Following incubation, colonies were harvested from these plates and cell suspensions prepared and frozen at −80° C. with a cryoprotectant. Prior to testing, the isolates were streaked from frozen vials onto Trypticase Soy Agar with 5% sheep blood (Becton Dickenson [BD]; Sparks, MD; Lot Nos. 7173618, 7166759, 7208688, 72144895, 7228505 and Remel Lenexa, KS Lot No. 212574). Plates were incubated at 35° C. overnight.
(§3) Mueller Hinton II broth (MHB II; BD; Lot Nos. 6258541 and 7143896) was used for MIC testing of aerobic organisms.
(§4) MIC values were determined using a broth microdilution procedure described by CLSI (1, 3). Automated liquid handlers (Multidrop 384, Labsystems, Helsinki, Finland; Biomek 2000 and Biomek FX, Beckman Coulter, Fullerton CA) were used to conduct serial dilutions and liquid transfers.
(§5) To prepare the drug mother plates, which would provide the serial drug dilutions for the replicate daughter plates, the wells of columns 2-12 of standard 96-well microdilution plates (Costar 3795) were filled with 150 μl of the designated diluent for each row of drug. The test articles and comparator compounds (300 μl at 40× the highest concentration to be tested) were dispensed into the appropriate wells in column 1. The Biomek 2000 was then used to make 2-fold serial dilutions in the mother plates from column 1 through column 11. The wells of Column 12 contained no drug and served as the organism growth control wells for the assay.
(§6) The daughter plates were loaded with 185 μL per well of MHB II using the Multidrop 384. The daughter plates were completed on the Biomek FX instrument which transferred 5 μL of drug solution from each well of a mother plate to the corresponding well of each daughter plate in a single step. A standardized inoculum of each test organism was prepared per CLSI methods (1). The inoculum for each organism was dispensed into sterile reservoirs divided by length (Beckman Coulter), and the Biomek 2000 was used to inoculate the plates. Daughter plates were placed on the Biomek 2000 work surface in reverse orientation so that inoculation took place from low to high drug concentration.
(§7) Plates were stacked 3-4 high, covered with a lid on the top plate, placed in plastic bags, and incubated at 35° C. for 16 to 20 hrs. Following incubation, the microplates were removed from the incubator and viewed from the bottom using a plate viewer. […] The MIC was read and recorded as the lowest concentration of drug that inhibited visible growth of the organism.
(§8) Clinical breakpoints to determine percent resistance within a given organism group were obtained from CLSI (3), with the exception of colistin for K. pneumoniae, Enterobacter spp., and E. coli, which are only available from EUCAST.

Assay [2] deals with Escherichia coli isolates (n = 101). Conditions: Escherichia coli (n = 101); CLSI breakpoints, colistin EUCAST. How it is done: as §1, §2, §3, §4, §5, §6, §7, §8
In assay [3] the test system is Klebsiella pneumoniae isolates (n = 101). The procedure:
as §1, §2, §3, §4, §5, §6, §7, §8

Assay [4] concerns Pseudomonas aeruginosa isolates (n = 109). Conditions: Pseudomonas aeruginosa (n = 109); CLSI breakpoints. The procedure: as §1, §2, §3, §4, §5, §6, §7, §8
Assay [5] relates to Enterobacter spp. isolates (Enterobacter aerogenes and E. cloacae, n = 102). The assay can be described thus: organism not typed. The settings on record: for % R (percent of isolates resistant): CLSI breakpoints, colistin EUCAST; for MIC: read-out: Mode (MIC). How it is done: as §1, §2, §3, §4, §5, §6, §7, §8
For assay [6], the system named is Enterococcus faecium isolates (n = 104). Kind of assay: microbe, parasite or virus in culture. Conditions: for MIC: read-out: Mode (MIC); for % R (percent of isolates resistant): CLSI breakpoints. How it is done:
as §1
The test organisms evaluated in this study consisted of clinical isolates from the Micromyx Repository and reference isolates from the American Type Culture Collection (ATCC; Manassas, VA). The clinical isolates were obtained from USA hospitals. Upon initial receipt at Micromyx, the organisms were sub-cultured onto an appropriate agar medium. Following incubation, colonies were harvested from these plates and cell suspensions prepared and frozen at −80° C. with a cryoprotectant. […] Plates were incubated at 35° C. overnight.
MIC values were determined using a broth microdilution procedure described by CLSI (1, 3).
The test articles and comparator compounds (300 μl at 40× the highest concentration to be tested) were dispensed into the appropriate wells in column 1. The Biomek 2000 was then used to make 2-fold serial dilutions in the mother plates from column 1 through column 11. The wells of Column 12 contained no drug and served as the organism growth control wells for the assay.
The daughter plates were completed on the Biomek FX instrument which transferred 5 μL of drug solution from each well of a mother plate to the corresponding well of each daughter plate in a single step. A standardized inoculum of each test organism was prepared per CLSI methods (1). The inoculum for each organism was dispensed into sterile reservoirs divided by length (Beckman Coulter), and the Biomek 2000 was used to inoculate the plates. Daughter plates were placed on the Biomek 2000 work surface in reverse orientation so that inoculation took place from low to high drug concentration.
as §7, §8

Assay [7] relates to Staphylococcus aureus isolates (n = 104). The assay can be described thus: microbe, parasite or virus in culture. The settings on record: for % R (percent of isolates resistant): CLSI breakpoints. The procedure: as §1, §2, §3, §4, §5, §6, §7, §8
Setting [8] is: Klebsiella pneumoniae (n = 101), CLSI breakpoints, colistin EUCAST.
Where [9] appears, read: Staphylococcus aureus (n = 104), all methicillin-resistant.
Where [10] appears, read: Staphylococcus aureus (n = 104).

As for `CC(C)(O/N=C(\C(=O)N[C@@H]1C(=O)N2C(C(=O)[O-])=C(C[n+]3ccccc3)CS[C@H]12)c1csc(N)n1)C(=O)O` [Ceftazidime], the “% R (percent of isolates resistant)” value in assay [1] is 61.5%; in assay [2], 33.6%; in assay [3], “Over 80%”; in assay [3] (setting [8]), 80.2%; in assay [4] it was 14.6%; in assay [5] (Enterobacter spp. (n = 102)) it was 36.3%. In assay [5], this compound returned an MIC50 of 1 µg/mL (≈ 1.83 µM). In assay [5], this compound had an MIC90 of over 32 µg/mL. In addition, the MIC in assay [5] was over 32 µg/mL.

`CCC[C@@H]1C[C@@H](C(=O)N[C@@H]([C@H]2O[C@H](SC)[C@H](O)[C@@H](O)[C@H]2O)[C@H](C)Cl)N(C)C1` [Clindamycin]: in assay [6] (Enterococcus faecium), the MIC50 was over 16 µg/mL, the MIC90 was over 16 µg/mL and the MIC was over 16 µg/mL. This compound gave an MIC90 in assay [7] (setting [9]) of over 16 µg/mL. Besides, the “% R (percent of isolates resistant)” value in assay [7] (setting [10]) came out at 37.5%.

On to `C[C@H]1c2cccc(O)c2C(=O)C2=C(O)[C@]3(O)C(=O)C(C(N)=O)=C(O)[C@@H](N(C)C)[C@@H]3[C@@H](O)[C@@H]21` [Doxycycline], for which, in assay [6] (Enterococcus faecium), the MIC50 turned out to be 4 µg/mL (≈ 9 µM), the MIC90 was 16 µg/mL (≈ 36 µM) and the MIC was found to be 0.12 µg/mL (≈ 0.27 µM). Further, in assay [6] (Enterococcus faecium (n = 104)), the “% R (percent of isolates resistant)” value came out at 25%. The compound further gave an MIC range in assay [7] (setting [9]) of 0.06 to 8 µg/mL. For the same compound, the “% R (percent of isolates resistant)” value in assay [7] (setting [10]) worked out at 0%.

With `CC(=O)NC[C@H]1CN(c2ccc(N3CCOCC3)c(F)c2)C(=O)O1` [Linezolid], in assay [6] (Enterococcus faecium), the MIC50 was 2 µg/mL (≈ 5.93 µM), the MIC90 turned out to be 4 µg/mL (≈ 11.9 µM) and the MIC is 2 µg/mL (≈ 5.93 µM). In addition, in assay [6] (Enterococcus faecium (n = 104)), the MIC range is 1 to 32 µg/mL and the “% R (percent of isolates resistant)” value worked out at 3.8%. The compound further displayed an MIC range in assay [6] (Enterococcus faecium (n = 104), listed as linezolid) of 1 to 32 µg/mL. Besides, the MIC range in assay [7] (setting [9]) was 1 to 8 µg/mL. Besides, in assay [7] (setting [10]), the “% R (percent of isolates resistant)” value was determined as 1.9%.

Regarding `NC[C@H]1O[C@H](O[C@H]2[C@H](O)[C@@H](O[C@H]3O[C@H](CO)[C@@H](O)[C@H](N)[C@H]3O)[C@H](N)C[C@@H]2N)[C@H](N)C[C@@H]1O` [Tobramycin], the “% R (percent of isolates resistant)” value is given as 49.0% in assay [1]; 21.7% in assay [2]; “over 60%” in assay [3]; 59.4% in assay [3] (setting [8]); 7.4% in assay [4]; 3.9% in assay [5] (Enterobacter spp. (n = 102)). This compound yielded an MIC50 in assay [5] of 0.5 µg/mL (≈ 1.07 µM). In assay [5], this compound yielded an MIC90 of 1 µg/mL (≈ 2.14 µM). The same compound showed an MIC range in assay [5] (Enterobacter spp. (n = 102)) of 0.12 to 64 µg/mL. In assay [5], the MIC was determined as 0.5 µg/mL (≈ 1.07 µM).

Consider `CN[C@H](CC(C)C)C(=O)N[C@H]1C(=O)N[C@@H](CC(N)=O)C(=O)N[C@H]2C(=O)N[C@H]3C(=O)N[C@H](C(=O)N[C@H](C(=O)O)c4cc(O)cc(O)c4-c4cc3ccc4O)[C@H](O)c3ccc(c(Cl)c3)Oc3cc2cc(c3O[C@@H]2O[C@H](CO)[C@@H](O)[C@H](O)[C@H]2O[C@H]2C[C@](C)(N)[C@H](O)[C@H](C)O2)Oc2ccc(cc2Cl)[C@H]1O` [Vancomycin], for which the MIC50 in assay [6] (Enterococcus faecium) and in assay [7] (Staphylococcus aureus) was 1 µg/mL (≈ 0.69 µM) each time. Besides, the MIC90 in assay [6] (Enterococcus faecium) is over 32 µg/mL; in assay [6] (Enterococcus faecium (n = 104)), over 32 µg/mL; in assay [7] (Staphylococcus aureus) it was 1 µg/mL (≈ 0.69 µM). For the same compound, the “% R (percent of isolates resistant)” value in assay [6] (Enterococcus faecium (n = 104)) is listed as 47.1%; in assay [7] (setting [10]), 0%. Moreover, the MIC in assay [6] (Enterococcus faecium) is over 32 µg/mL; in assay [7] (Staphylococcus aureus, read-out: Mode (MIC)), 1 µg/mL (≈ 0.69 µM). In assay [7] (setting [9]), the MIC range lay within 0.5 to 2 µg/mL.
